Our source for the IC50 and Ki values is BindingDB's records for doi:10.1002/cbic.200900108 (University of British Columbia, 2009).

For the assay, the target named is T1, Trans-sialidase (Trypanosoma cruzi, UniProt Q26966).
T1 sequence (Q26966 whole entry): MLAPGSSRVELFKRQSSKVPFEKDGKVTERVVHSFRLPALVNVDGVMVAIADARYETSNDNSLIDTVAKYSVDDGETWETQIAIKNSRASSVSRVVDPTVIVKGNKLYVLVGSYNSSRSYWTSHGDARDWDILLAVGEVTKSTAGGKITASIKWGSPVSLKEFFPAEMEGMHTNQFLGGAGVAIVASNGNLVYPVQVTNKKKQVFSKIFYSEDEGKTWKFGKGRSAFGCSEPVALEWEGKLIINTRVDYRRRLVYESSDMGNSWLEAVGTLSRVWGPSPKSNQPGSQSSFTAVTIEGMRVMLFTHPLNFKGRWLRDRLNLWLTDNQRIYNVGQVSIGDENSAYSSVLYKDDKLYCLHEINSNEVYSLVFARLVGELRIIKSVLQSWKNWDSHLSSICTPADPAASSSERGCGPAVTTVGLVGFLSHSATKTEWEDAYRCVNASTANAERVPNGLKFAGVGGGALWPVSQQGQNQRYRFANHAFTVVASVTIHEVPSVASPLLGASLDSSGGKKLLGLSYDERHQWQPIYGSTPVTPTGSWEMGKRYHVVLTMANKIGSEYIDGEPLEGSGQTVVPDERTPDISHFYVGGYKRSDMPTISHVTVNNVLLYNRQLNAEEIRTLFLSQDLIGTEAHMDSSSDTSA
As to the kind of experiment: Inhibition Assay. The settings on record: pH 7.6; 35 °C. The text has this:
Inhibition assay using trans-sialidase, a membrane-associated protein.
In the case of `Cc1ccc(S(=O)(=O)Nc2ccc(C(=O)/C=C/c3ccc(O)c(O)c3)cc2)cc1`, the IC50 turned out to be 0.9 µM and the Ki was 4.6 µM.
In the case of `Cc1ccc(S(=O)(=O)N2c3ccccc3C(=O)/C(=C/c3ccc(O)cc3)C2c2ccc(O)cc2)cc1` (centres undefined) [Quinolinone derivative, 8], half-maximal inhibition (IC50) required 30 µM.
`Cc1ccc(S(=O)(=O)N2c3ccccc3C(=O)/C(=C/c3ccc(O)c(O)c3)C2c2ccc(O)c(O)c2)cc1` (centres undefined) [Quinolinone derivative, 9] gave a concentration for half-maximal inhibition (IC50) of 0.6 µM and a Ki of 0.4 µM.
Compound `Cc1ccc(S(=O)(=O)Nc2ccc(C(=O)/C=C/c3ccc(O)cc3)cc2)cc1` came in with a 50% inhibitory concentration (IC50) of 73 µM.
On to `Cc1ccc(S(=O)(=O)Nc2cccc(C(=O)/C=C/c3ccc(O)cc3)c2)cc1` [Sulfonamide chalcone, 6], for which the IC50 amounted to 37 µM. This IC50 is about 2-fold lower than that of the compound before.
As for `Cc1ccc(S(=O)(=O)Nc2cccc(C(=O)/C=C/c3ccc(O)c(O)c3)c2)cc1`, inhibition was half-maximal at 2.5 µM (IC50) and the affinity corresponds to a Ki of 3.7 µM.
